Converted amounts (≈) assume the structure as drawn.
Legend:
Assay type in all cases: functional
Conditions in all cases: read-out: ED50 (the source's name)
MCF7 = assay: Cytotoxicity against human MCF7 cells
LNCaP = assay: Cytotoxicity against human LNCAP cells
Lu1 = assay: Cytotoxicity against human Lu1 cells

CC1=C(C)C(=O)O[C@@H]([C@]2(C)OC(=O)[C@]34CC[C@H]5[C@@H](C[C@H]6O[C@]67[C@@H](O)CCC(=O)[C@]57C)[C@@H]3CC[C@H]24)C1 (relative stereo) [WITHAPHYSALIN N] showed an EC50 (MCF7) of 15 µg/mL (≈ 31 µM), an EC50 (LNCaP) of over 20 µg/mL and an EC50 (Lu1) of 9.3 µg/mL (≈ 19.2 µM).
For CCOC1O[C@@](C)([C@H]2CC(C)=C(C)C(=O)O2)[C@H]2CC[C@H]3[C@@H]4C[C@H]5O[C@]56[C@@H](O)C=CC(=O)[C@]6(C)[C@H]4CC[C@]123 (relative stereo) [WITHAPHYSALIN O], the EC50 (MCF7) was 1 µg/mL (≈ 1.95 µM), the EC50 (LNCaP) was 0.9 µg/mL (≈ 1.76 µM) and the EC50 (Lu1) was 0.16 µg/mL (≈ 0.312 µM).
CC1=C(C)C(=O)O[C@@H]([C@]2(C)OC(=O)[C@]34CC[C@H]5[C@@H](C[C@H]6O[C@]67[C@@H](O)C=CC(=O)[C@]57C)[C@@H]3CC[C@H]24)C1 (relative stereo) [WITHAPHYSALIN M] gave an EC50 (MCF7) of 1.2 µg/mL (≈ 2.49 µM), an EC50 (LNCaP) of 1 µg/mL (≈ 2.07 µM) and an EC50 (Lu1) of 0.22 µg/mL (≈ 0.456 µM).

— ChEMBL document CHEMBL1151188, “Cytotoxic withaphysalins from the leaves of Acnistus arborescens” (2004)
